Assay results published in patent US9833497B2, “Human originated EGF domain proteins and use of the same” (CHENGDU SOURCEBIO LIMITED-LIABILITY COMPANY, priority 2013, dated 2017).

Legend:
Assay type in all cases: cell-based
[1] = tested on: Proteus mirabilis; assay: MIC against Gram-negative bacteria: Proteus mirabilis; conditions: 5×10^5 CFU/mL
Description: (§1) 1. Gram-negative bacteria, such as E. coli BL21, Pseudomonas aeruginosa, Klebsiella pneumonia, Enterobacter cloacae, Aeromonas hydrophila, Citrobacter diversus, Moraxella catarrhalis, Proteus mirabilis, Proteus vulgaris, Serratia marcescens, etc were streaked on solid LB medium and cultured respectively. Then, typical clones were picked, inoculated into common liquid LB medium respectively, and cultured at 37° C. with shaking at 185 rpm until the McFarland specific turbidity was 0.5. The bacterial culture of each of Gram-negative bacteria was centrifuged at 4000×g for 3 min, the supernatant was discarded, and the thalli were resuspended with fresh LB medium.
(§2) 2. The above-mentioned bacterial suspensions were diluted and inoculated into 96-well plates with the final concentration of the bacterial suspension being 5×10^5 CFU/mL per well.
(§3) 3. Each of the purified human-originated EGF domain proteins (PRT1 to PRT1498 in Table 1) was added to each of the above wells and subjected to two-fold serial dilution in concentration. Three parallel wells were set up for each concentration in the gradient.
(§4) 4. The above-mentioned 96-well plates were placed and cultured at 37° C. in shaking incubator shaking at 175 rpm. […] The minimal inhibitory concentration MIC is defined as the lowest concentration of the recombinant protein at which there is no growth of the bacteria.

[2] = tested on: Klebsiella pneumonia; assay: MIC against Gram-negative bacteria: Klebsiella pneumonia; conditions: 5×10^5 CFU/mL
Description: as §1, §2, §3, §4

[3] = tested on: Enterobacter cloacae; assay: MIC against Gram-negative bacteria: Enterobacter cloacae; conditions: 5×10^5 CFU/mL
Description: as §1, §2, §3, §4

[4] = tested on: Serratia marcescens; assay: MIC against Gram-negative bacteria: Serratia marcescens; conditions: 5×10^5 CFU/mL
Description: as §1, §2, §3, §4

[5] = tested on: Pseudomonas aeruginosa; assay: MIC against Gram-negative bacteria: Pseudomonas aeruginosa; conditions: 5×10^5 CFU/mL
Description: as §1, §2, §3, §4

[6] = tested on: E. coli BL21; assay: MIC against Gram-negative bacteria: E. coli BL21; conditions: 5×10^5 CFU/mL
Description: as §1, §2, §3, §4

[7] = tested on: Citrobacter diversus; assay: MIC against Gram-negative bacteria: Citrobacter diversus; conditions: 5×10^5 CFU/mL
Description: as §1, §2, §3, §4

[8] = tested on: E. coli DH5α; assay: Antibacterial activity: MIC and growth curve against E. coli DH5α in 96-well plate; conditions: minimal inhibitory concentration against E. coli DH5α; 96-well plate, 5×10^5 CFU/mL, 37° C., judged after 8 h
Description: 1. E. coli DH5α was exemplified. E. coli DH5α was streaked and cultured on LB solid medium. Then, a typical clone was picked and inoculated into common LB liquid medium, cultured at 37° C. with shaking at 185 rpm until the logarithmic growth phase was reached (OD600 of about 0.5). The bacterial culture was centrifuged at 4000×g for 3 min, the supernatant was discarded, and the thalli were resuspended with fresh LB medium.
2. The above-mentioned bacterial suspension was diluted and inoculated into a 96-well plate with the total volume of 100 μL per well and a bacterial count of 5×10^5 CFU/mL.
3. The recombinant protein hF VII-EGF1 was added to the above-mentioned wells with the final protein concentration in the well of the highest protein concentration being 50 μg/mL. Basing on this final concentration, a two-fold serial dilution was performed till a protein concentration gradient consisting of 50, 25, and 12.5 μg/mL was set up. Three parallel wells were set up for each concentration in the gradient.
as §4, with “plate was” for “plates were”, “rpm. Samples were taken every 30 min, the absorbance values were determined at 600 nm wavelength under a ultra violet spectrophotometer, and an inhibition curve was plotted.” for “rpm.”
According to the experimental procedures in Example 14, the minimal inhibitory concentrations (MIC, μg/mL) of the other human-originated EGF domain proteins (PRT2 to PRT1498 in Table 1) for E. coli DH5α were determined.

[9] = tested on: Moraxella catarrhalis; assay: MIC against Gram-negative bacteria: Moraxella catarrhalis; conditions: 5×10^5 CFU/mL
Description: as §1, §2, §3, §4

[10] = tested on: Aeromonas hydrophila; assay: MIC against Gram-negative bacteria: Aeromonas hydrophila; conditions: 5×10^5 CFU/mL
Description: as §1, §2, §3, §4

[11] = tested on: Proteus vulgaris; assay: MIC against Gram-negative bacteria: Proteus vulgaris; conditions: 5×10^5 CFU/mL
Description: as §1, §2, §3, §4

[12] = E. coli BL21, 10 h cultivation at 37° C.
[13] = 10 h cultivation at 37° C., two-fold serial dilution

In the case of “PRT176 (APLVCRAGCSPEHGFCEQPGECRCLEGWTGPLCT; listed as Homo sapiens)”, the “MIC (μg/mL) P. mirabilis” value ([1]; P. mirabilis, 10 h cultivation at 37° C.) is reported as 25 µg/mL, the “MIC (μg/mL) K. pneumonia” value ([2]; K. pneumonia, 10 h cultivation at 37° C.) is reported as 12.5 µg/mL and the “MIC (μg/mL) E. cloacae” value ([3]; E. cloacae, 10 h cultivation at 37° C.) is reported as 25 µg/mL. For the same substance, the “MIC (μg/mL) S. marcescens” value ([4]; S. marcescens, 10 h cultivation at 37° C.) was 25 µg/mL, the “MIC (μg/mL) P. aeruginosa” value ([5]; P. aeruginosa, 10 h cultivation at 37° C.) was 25 µg/mL and the “MIC (μg/mL) E. coli BL21” value [6, 12] was 12.5 µg/mL. The “MIC (μg/mL) C. diversus” value ([7]; C. diversus, 10 h cultivation at 37° C.) was 25 µg/mL, the MIC [8] was 25 µg/mL and the “MIC (μg/mL) M. catarrhalis” value ([9]; M. catarrhalis, 10 h cultivation at 37° C.) was 50 µg/mL. For the same substance, the “MIC (μg/mL) A. hydrophila” value ([10]; A. hydrophila, 10 h cultivation at 37° C.) was 12.5 µg/mL and the “MIC (μg/mL) P. vulgaris” value ([11]; P. vulgaris, 10 h cultivation at 37° C.) was 12.5 µg/mL.
In the case of “PRT66 (DDNICLREPCENYMKCVSVLRFDSSAPFLSSTTVLFRPIHPINGLRCRCPPGFTGDYCE; listed as Homo sapiens)”, the “MIC (μg/mL) P. mirabilis” value ([1]; Proteus mirabilis, 96-well plate, 37° C., 10 h) is reported as 25 µg/mL, the “MIC (μg/mL) K. pneumonia” value ([2]; Klebsiella pneumonia, 96-well plate, 37° C., 10 h) is reported as 12.5 µg/mL and the “MIC (μg/mL) E. cloacae” value ([3]; Enterobacter cloacae, 96-well plate, 37° C., 10 h) is reported as 12.5 µg/mL. For the same substance, the “MIC (μg/mL) S. marcescens” value ([4]; Serratia marcescens, 96-well plate, 37° C., 10 h) was 25 µg/mL, the “MIC (μg/mL) P. aeruginosa” value ([5]; Pseudomonas aeruginosa, 96-well plate, 37° C., 10 h) was 12.5 µg/mL and the “MIC (μg/mL) E. coli BL21” value ([6]; E. coli BL21, 96-well plate, 37° C., 10 h) was 12.5 µg/mL. The “MIC (μg/mL) C. diversus” value ([7]; Citrobacter diversus, 96-well plate, 37° C., 10 h) was 25 µg/mL, the MIC [8] was 12.5 µg/mL and the “MIC (μg/mL) M. catarrhalis” value ([9]; Moraxella catarrhalis, 96-well plate, 37° C., 10 h) was 12.5 µg/mL. The “MIC (μg/mL) A. hydrophila” value ([10]; Aeromonas hydrophila, 96-well plate, 37° C., 10 h) was 12.5 µg/mL and the “MIC (μg/mL) P. vulgaris” value ([11]; Proteus vulgaris, 96-well plate, 37° C., 10 h) was 12.5 µg/mL.
“PRT502 (CECHGHAAECNVHGVCIACAHNTTGVHCEQCLPGFYGEPSRGTPGDCQP; listed as Homo sapiens)” was tested, and the “MIC against P. mirabilis” value ([1]; 96-well plate, 37° C., 10 h) was 12.5 µg/mL, the “MIC against K. pneumonia” value ([2]; 96-well plate, 37° C., 10 h) was 12.5 µg/mL and the “MIC against E. cloacae” value ([3]; 96-well plate, 37° C., 10 h) was 12.5 µg/mL. The “MIC against S. marcescens” value ([4]; 96-well plate, 37° C., 10 h) was 25 µg/mL, the “MIC against P. aeruginosa” value ([5]; 96-well plate, 37° C., 10 h) was 12.5 µg/mL and the “MIC against E. coli BL21” value ([6]; 96-well plate, 37° C., 10 h) was 12.5 µg/mL. The “MIC against C. diversus” value ([7]; 96-well plate, 37° C., 10 h) was 12.5 µg/mL, the MIC [8] was 25 µg/mL and the “MIC against M. catarrhalis” value ([9]; 96-well plate, 37° C., 10 h) was 12.5 µg/mL. The “MIC against A. hydrophila” value ([10]; 96-well plate, 37° C., 10 h) was 12.5 µg/mL and the “MIC against P. vulgaris” value ([11]; 96-well plate, 37° C., 10 h) was 50 µg/mL.
In the case of “PRT1086 (HFKPCRDKDLAYCLNDGECFVIETLTGSHKHCRCKEGYQGVRCD; listed as Homo sapiens)”, the “MIC P. mirabilis” value [1, 13] is reported as 12.5 µg/mL, the “MIC K. pneumonia” value [2, 13] is reported as 25 µg/mL and the “MIC E. cloacae” value [3, 13] is reported as 12.5 µg/mL. For the same substance, the “MIC S. marcescens” value [4, 13] was 12.5 µg/mL, the “MIC P. aeruginosa” value [5, 13] was 50 µg/mL and the “MIC E. coli BL21” value [6, 13] was 25 µg/mL. The “MIC C. diversus” value [7, 13] was 50 µg/mL, the MIC [8] was 12.5 µg/mL and the “MIC M. catarrhalis” value [9, 13] was 25 µg/mL. The “MIC A. hydrophila” value [10, 13] was 25 µg/mL and the “MIC P. vulgaris” value [11, 13] was 50 µg/mL.
For “PRT1460 (CDCDTVGTRNGSILCDQIGGQCNCKRHVSGRQCNQCQNGFYNLQELDPDGCSP; listed as Homo sapiens)”, the “MIC against P. mirabilis” value ([1]; Proteus mirabilis, 10 h cultivation at 37° C.) was 12.5 µg/mL, the “MIC against K. pneumonia” value ([2]; Klebsiella pneumonia, 10 h cultivation at 37° C.) was 50 µg/mL and the “MIC against E. cloacae” value ([3]; Enterobacter cloacae, 10 h cultivation at 37° C.) was 25 µg/mL. The “MIC against S. marcescens” value ([4]; Serratia marcescens, 10 h cultivation at 37° C.) was 50 µg/mL, the “MIC against P. aeruginosa” value ([5]; Pseudomonas aeruginosa, 10 h cultivation at 37° C.) was 25 µg/mL and the “MIC against E. coli BL21” value [6, 12] was 25 µg/mL. The “MIC against C. diversus” value ([7]; Citrobacter diversus, 10 h cultivation at 37° C.) was 25 µg/mL, the MIC [8] was 12.5 µg/mL and the “MIC against M. catarrhalis” value ([9]; Moraxella catarrhalis, 10 h cultivation at 37° C.) was 50 µg/mL. For the same substance, the “MIC against A. hydrophila” value ([10]; Aeromonas hydrophila, 10 h cultivation at 37° C.) was 12.5 µg/mL and the “MIC against P. vulgaris” value ([11]; Proteus vulgaris, 10 h cultivation at 37° C.) was 25 µg/mL.
With “PRT714 (HINECLSKKVSGCSQDCQDLPVSYKCKCWPGFQLKDDGKTCV; listed as Homo sapiens)” the “MIC P. mirabilis” value ([1]; 96-well plate, 37° C., 10 h) was 12.5 µg/mL, the “MIC K. pneumonia” value ([2]; 96-well plate, 37° C., 10 h) was 12.5 µg/mL and the “MIC E. cloacae” value ([3]; 96-well plate, 37° C., 10 h) was 12.5 µg/mL. For the same substance, the “MIC S. marcescens” value ([4]; 96-well plate, 37° C., 10 h) was 12.5 µg/mL, the “MIC P. aeruginosa” value ([5]; 96-well plate, 37° C., 10 h) was 12.5 µg/mL and the “MIC E. coli BL21” value ([6]; 96-well plate, 37° C., 10 h) was 25 µg/mL. The “MIC C. diversus” value ([7]; 96-well plate, 37° C., 10 h) was 12.5 µg/mL, the MIC [8] was 12.5 µg/mL and the “MIC M. catarrhalis” value ([9]; 96-well plate, 37° C., 10 h) was 50 µg/mL. The “MIC A. hydrophila” value ([10]; 96-well plate, 37° C., 10 h) was 50 µg/mL and the “MIC P. vulgaris” value ([11]; 96-well plate, 37° C., 10 h) was 50 µg/mL.
